Patent US9930892B2, “Molecules having pesticidal utility, and intermediates, compositions, and processes, related thereto” (Dow AgroSciences LLC, priority 2016, dated 2018)

What was measured:
Format in all cases: in vivo
[1] = test system: Cabbage Looper (Trichoplusia ni); assay: Bioassay on Cabbage Looper (CL), 128-well diet tray assay; conditions: 50 μg/cm^2 on artificial diet, second instar larvae, five to seven days, 25° C.
Method: Bioassays on CL were conducted using a 128-well diet tray assay. One to five second instar CL larvae were placed in each well (3 mL) of the diet tray that had been previously filled with 1 mL of artificial diet to which 50 μg/cm^2 of the test molecule (dissolved in 50 μL of 90:10 acetone-water mixture) had been applied (to each of eight wells) and then allowed to dry. Trays were covered with a clear self-adhesive cover and held at 25° C., 14:10 light-dark for five to seven days. Percent mortality was recorded for the larvae in each well; activity in the eight wells was then averaged. The results are indicated in the table entitled “Table ABC: Biological Results” (See Table Section).
(§1) Bioassays on BAW and CL were conducted according to the procedures outlined in Example A: Bioassays on Beet Armyworm (“BAW”) and Cabbage Looper (“CL”) using the indicated concentrations.

[2] = test system: Yellow Fever Mosquito (Aedes aegypti); conditions: 4000 ppm master plate solution diluted, about 1 day-old larvae, scored on mortality after 3 days
Method: Master plates containing 400 μg of a molecule dissolved in 100 μL of dimethyl sulfoxide (DMSO) (equivalent to a 4000 ppm solution) are used. A master plate of assembled molecules contains 15 μL per well. To this plate, 135 μL of a 90:10 water:acetone mixture is added to each well. A robot (Biomek® NXP Laboratory Automation Workstation) is programmed to dispense 15 μL aspirations from the master plate into an empty 96-well shallow plate (“daughter” plate). There are 6 reps (“daughter” plates) created per master. The created daughter plates are then immediately infested with YFM larvae.
The day before plates are to be treated, mosquito eggs are placed in Millipore water containing liver powder to begin hatching (4 g. into 400 mL). After the daughter plates are created using the robot, they are infested with 220 μL of the liver powder/larval mosquito mixture (about 1 day-old larvae). After plates are infested with mosquito larvae, a non-evaporative lid is used to cover the plate to reduce drying. Plates are held at room temperature for 3 days prior to grading. After 3 days, each well is observed and scored based on mortality. The results are indicated in the table entitled “Table ABC: Biological Results” (See Table Section).

[3] = test system: Beet Armyworm (Spodoptera exigua); assay: Bioassay on Beet Armyworm (BAW), 128-well diet tray assay; conditions: 50 μg/cm^2 on artificial diet, second instar larvae, five to seven days, 25° C.
Method: Bioassays on BAW were conducted using a 128-well diet tray assay. One to five second instar BAW larvae were placed in each well (3 mL) of the diet tray that had been previously filled with 1 mL of artificial diet to which 50 μg/cm^2 of the test molecule (dissolved in 50 μL of 90:10 acetone-water mixture) had been applied (to each of eight wells) and then allowed to dry. Trays were covered with a clear self-adhesive cover and held at 25° C., 14:10 light-dark for five to seven days. Percent mortality was recorded for the larvae in each well; activity in the eight wells was then averaged. The results are indicated in the table entitled “Table ABC: Biological Results” (See Table Section).
as §1

[4] = test system: Green Peach Aphid (Myzus persicae); assay: Bioassay on Green Peach Aphid (GPA), foliar spray on cabbage seedlings; conditions: 200 ppm spray on cabbage seedlings, graded after three days, Abbott corrected % control
Method: Cabbage seedlings grown in 3-inch pots, with 2-3 small (3-5 cm) true leaves, were used as test substrate. The seedlings were infested with 20-50 GPA (wingless adult and nymph stages) one day prior to chemical application. Four pots with individual seedlings were used for each treatment. Test molecules (2 mg) were dissolved in 2 mL of acetone/methanol (1:1) solvent, forming stock solutions of 1000 ppm test molecule. The stock solutions were diluted 5× with 0.025% Tween 20 in water to obtain the solution at 200 ppm test molecule. A hand-held aspirator-type sprayer was used for spraying a solution to both sides of […] leaves until runoff. Reference plants (solvent check) were sprayed with the diluent only containing 20% by volume of acetone/methanol (1:1) solvent. Treated plants were held in a holding room for three days at approximately 25° C. and ambient relative humidity (RH) prior to grading. Evaluation was conducted by counting the number of live aphids per plant under a microscope. Percent Control was measured by using Abbott's correction formula (W. S. Abbott, “A Method of Computing the Effectiveness of an Insecticide” J. Econ. Entomol. 18 (1925), pp. 265-267) as follows. Corrected % Control=100*(X−Y)/X • where • X=No. of live aphids on solvent check plants and • Y=No. of live aphids on treated plants

Row | SMILES | CL % Control (or Mortality) rating [1] | YFM % Control (or Mortality) rating [2] | BAW % Control (or Mortality) rating [3] | GPA % Control (or Mortality) rating [4]
1 | O=C(CCC(F)(F)F)NNC(=O)c1ccc(/C(F)=C/C(c2cc(Br)c(Cl)c(Br)c2)C(F)(F)F)cc1C(F)(F)F (stereo not shown) [F5, (Z)-4-(3-(3,5-dibromo-4-chlorophenyl)-1,4,4,4-tetrafluorobut-1-en-1-yl)-N′-(4,4,4-trifluorobutanoyl)-2-(trifluoromethyl)benzohydrazide] | A (50-100) | A (80-100) | A (50-100) | –
2 | O=C(CCC(F)(F)F)NNC(=O)c1ccc(/C(F)=C/C(c2cc(Cl)cc(Cl)c2)C(F)(F)F)cc1C(F)(F)F (stereo not shown) [F6, (Z)-4-(3-(3,5-Dichlorophenyl)-1,4,4,4-tetrafluorobut-1-en-1-yl)-N′-(4,4,4-trifluorobutanoyl)-2-(trifluoromethyl)benzohydrazide] | A (50-100) | A (80-100) | A (50-100) | –
3 | O=C(CCC(F)(F)F)NNC(=O)c1ccc(/C(F)=C/C(c2ccc(Cl)c(Cl)c2)C(F)(F)F)cc1C(F)(F)F (stereo not shown) [F7, (Z)-4-(3-(3,4-Dichlorophenyl)-1,4,4,4-tetrafluorobut-1-en-1-yl)-N′-(4,4,4-trifluorobutanoyl)-2-(trifluoromethyl)benzohydrazide] | A (50-100) | A (80-100) | A (50-100) | –
4 | CN(NC(=O)c1ccc(/C(F)=C/C(c2cc(Cl)cc(Cl)c2)C(F)(F)F)cc1C(F)(F)F)C(=O)NCC(F)(F)F (stereo not shown) [F8, (Z)-2-(4-(3-(3,5-Dichlorophenyl)-1,4,4,4-tetrafluorobut-1-en-1-yl)-2-(trifluoromethyl)benzoyl)-1-methyl-N-(2,2,2-trifluoroethyl) hydrazinecarboxamide] | A (50-100) | A (80-100) | A (50-100) | –
5 | O=C(CCC(F)(F)F)NNC(=O)c1ccc(/C(F)=C/C(c2cc(Br)cc(Br)c2)C(F)(F)F)cc1C(F)(F)F (stereo not shown) [F9, (Z)-4-(3-(3,5-Dibromophenyl)-1,4,4,4-tetrafluorobut-1-en-1-yl)-N′-(4,4,4-trifluorobutanoyl)-2-(trifluoromethyl)benzohydrazide] | A (50-100) | A (80-100) | A (50-100) | –
6 | O=C(CCC(F)(F)F)NNC(=O)c1ccc(/C(F)=C/C(c2cc(Cl)c(F)c(Cl)c2)C(F)(F)F)cc1C(F)(F)F (stereo not shown) [F10, (Z)-4-(3-(3,5-Dichloro-4-fluorophenyl)-1,4,4,4-tetrafluorobut-1-en-1-yl)-N′-(4,4,4-trifluorobutanoyl)-2-(trifluoromethyl)benzohydrazide] | A (50-100) | A (80-100) | A (50-100) | –
7 | CN(NC(=O)c1ccc(/C(F)=C/C(c2cc(Br)cc(Br)c2)C(F)(F)F)cc1C(F)(F)F)C(=O)NCC(F)(F)F (stereo not shown) [F14, (Z)-2-(4-(3-(3,5-dibromophenyl)-1,4,4,4-tetrafluorobut-1-en-1-yl)-2-(trifluoromethyl)benzoyl)-1-methyl-N-(2,2,2-trifluoroethyl)hydrazinecarboxamide] | A (50-100) | A (80-100) | A (50-100) | –
8 | CN(NC(=O)c1ccc(/C(F)=C/C(c2ccc(Cl)c(Cl)c2)C(F)(F)F)cc1C(F)(F)F)C(=O)NCC(F)(F)F (stereo not shown) [F15] | A (50-100) | A (80-100) | A (50-100) | –
9 | Cc1cc(C(/C=C(\F)c2ccc(C(=O)NN(C)C(=O)NCC(F)(F)F)c(C(F)(F)F)c2)C(F)(F)F)cc(C)c1Cl (stereo not shown) [F16, (Z)-2-(4-(3-(4-Chloro-3,5-dimethylphenyl)-1,4,4,4-tetrafluorobut-1-en-1-yl)-2-(trifluoromethyl)benzoyl)-1-methyl-N-(2,2,2-trifluoroethyl)hydrazinecarboxamide] | A (50-100) | A (80-100) | A (50-100) | –
10 | CN(NC(=O)c1ccc(/C(F)=C/C(c2cc(Cl)c(F)c(Cl)c2)C(F)(F)F)cc1C(F)(F)F)C(=O)NCC(F)(F)F (stereo not shown) [F22, (Z)-2-(4-(3-(3,5-Dichloro-4-fluorophenyl)-1,4,4,4-tetrafluorobut-1-en-1-yl)-2-(trifluoromethyl)benzoyl)-1-methyl-N-(2,2,2-trifluoroethyl)hydrazinecarboxamide] | A (50-100) | A (80-100) | A (50-100) | –
11 | CN(NC(=O)c1ccc(/C(F)=C/C(c2cc(Cl)cc(Br)c2)C(F)(F)F)cc1C(F)(F)F)C(=O)NCC(F)(F)F (stereo not shown) [F25, (Z)-2-(4-(3-(3-Bromo-5-chlorophenyl)-1,4,4,4-tetrafluorobut-1-en-1-yl)-2-(trifluoromethyl)benzoyl)-1-methyl-N-(2,2,2-trifluoroethyl)hydrazinecarboxamide] | A (50-100) | A (80-100) | A (50-100) | –
12 | CN(NC(=O)c1ccc(/C(F)=C/C(c2ccc(Br)c(Br)c2)C(F)(F)F)cc1C(F)(F)F)C(=O)NCC(F)(F)F (stereo not shown) [F26, (Z)-2-(4-(3-(3,4-Dibromophenyl)-1,4,4,4-tetrafluorobut-1-en-1-yl)-2-(trifluoromethyl)benzoyl)-1-methyl-N-(2,2,2-trifluoroethyl)hydrazinecarboxamide] | B (More than 0-Less than 50) | A (80-100) | B (More than 0-Less than 50) | –
13 | O=C(CCC(F)(F)F)NNC(=O)c1ccc(/C(F)=C/C(c2cc(Cl)c(Br)c(Cl)c2)C(F)(F)F)cc1C(F)(F)F (stereo not shown) [F27, (Z)-4-(3-(4-Bromo-3,5-dichlorophenyl)-1,4,4,4-tetrafluorobut-1-en-1-yl)-N′-(4,4,4-trifluorobutanoyl)-2-(trifluoromethyl)benzohydrazide] | A (50-100) | A (80-100) | A (50-100) | –
14 | Cc1cc(C(/C=C(\F)c2ccc(C(=O)NN(C)C(=O)NCC(F)(F)F)c(C(F)(F)F)c2)C(F)(F)F)cc(Cl)c1Cl (stereo not shown) [F30, (Z)-2-(4-(3-(3,4-Dichloro-5-methylphenyl)-1,4,4,4-tetrafluorobut-1-en-1-yl)-2-(trifluoromethyl)benzoyl)-1-methyl-N-(2,2,2-trifluoroethyl)hydrazine-1-carboxamide] | A (50-100) | D (No activity noticed in this bioassay) | A (50-100) | –
15 | CN(NC(=O)c1ccc(/C(F)=C/C(c2ccc(Cl)c(Br)c2)C(F)(F)F)cc1C(F)(F)F)C(=O)NCC(F)(F)F (stereo not shown) [PF8] | A (50-100) | A (80-100) | A (50-100) | B (More than 0-Less than 80)
